These results are taken from US9278956B1, “Small-molecule inhibitors of Rac1 in metastatic cancer cells” (University of Puerto Rico, priority 2012, dated 2016).

Like-named read-outs stand apart in the source and are kept apart here.

The test system of data set [1] is Rac. The settings on record: cited from earlier work.
Data set [2] has as its system Rac. In words: Rac.GTP pull-down (GST-PAK1 p21 binding domain), MDA-MB-435 cells. It counts as cell-based, human. Here is the method: (§1) Rho, Rac, and Cdc42 activities were analyzed from MDA-MB-435 cell lysates by pulldown assays using GST-Rho binding domain from Rhotekin to isolate active GTP bound Rho, and a GST-p21 binding domain of PAK1 to isolate active Rac.GTP or Cdc42.GTP. Active and total Rho GTPases were identified by western blotting with specific antibodies: anti RhoA, anti Rac (1,2,3), anti Rac3, or anti Cdc42 (Cell Signaling Technology, Inc., Danvers, Mass.).
(§2) Cell lysates or pulldowns were western blotted using routine laboratory procedures. Anti-RhoA, -Rac (1,2,3), -Cdc42, -p-PAK^Thr423 antibodies were from Cell Signaling Technology, Inc., Danvers, Mass. Anti Vav2 was from Zymed, San Francisco, Calif.; and Rac3, PAK1, Tiam-1, and Trio antibodies were from Santa Cruz Biotechnology, Inc., Santa Cruz, Calif.

Data set [3] has as its system Rac. The data set is described as follows: Rac.GTP pull-down (GST-PAK1 p21 binding domain), MDA-MB-231 cells. The settings on record: read-out: IC50 for inhibition of Rac activity. It counts as cell-based, human. As to the method: as §1, §2
In data set [4] the target is T1, Rac3 (Homo sapiens, UniProt P60763).
T1 construct: endogenous in cells; host or cells: MDA-MB-435
The data set is described as follows: Rac3-GTP pull-down, MDA-MB-435 cells. It counts as cell-based. As to the method:
as §1, §2

The target in data set [5] is T2, Cdc42 (Homo sapiens, UniProt P60953).
T2 construct: endogenous in cells; host or cells: MDA-MB-435
In words: Cdc42-GTP pull-down, MDA-MB-435 cells. The class given is cell-based. Here is the method:
as §1, §2

Data set [6] addresses T3, RhoA (Homo sapiens, UniProt P61586).
T3 construct: endogenous in cells; host or cells: MDA-MB-435
In words: RhoA-GTP pull-down (GST-Rhotekin Rho binding domain), MDA-MB-435 cells. It counts as cell-based. Conditions: 2, 4, 5, or 10 μM. As to the method: as §1, §2

Data set [7] deals with T4, Vav2 association with Rac1(G15A) (Homo sapiens, UniProt P63000, G15A).
T4 construct: purchased Cell Biolabs, San Diego, Calif; host or cells: Vav2: endogenous, MDA-MB-435 lysate
In words: Precipitation of activated GEFs with GST-Rac1(G15A) from MDA-MB-435 lysates (Vav2). The settings on record: 1 h, p<0.005, read-out: association of Vav2 with Rac1(G15A), compared to controls. The class given is binding. As to the method: MDA-MB-435 cells in culture media were lysed in 1% Triton X-100, 20 mM HEPES, pH 7.4, 150 mM NaCl, 5 mM MgCl2, and protease inhibitors and processed. Equal amounts of protein from clarified lysates were incubated for 1 h at 4° C. with glutathione agarose beads conjugated to GST-Rac1(G15A) nucleotide free mutant (Cell Biolabs, San Diego, Calif.), that were pre-incubated (for 1 h) with vehicle or 2 or […] EHop-016. The beads were washed and the lysates and pulldowns immunoblotted for Tiam-1, Trio, or Vav2.

Data set [8] relates to MDA-MB-231 cells. The data set is described as follows: Lamellipodia formation by fluorescence microscopy (Rhodamine phalloidin), MDA-MB-231. It counts as cell-based, human. The settings on record: 4 μM, 24 h, control close to 100%. As to the method:
Metastatic human cancer cell lines MDA-MB-435 and MDA-MB-231 (in DMEM with 10% FBS) were treated with vehicle (0.1% DMSO) or EHop-016 at 2 and 4 μM for 24 hrs. Cells were fixed, permeabilized, and stained with Rhodamine phalloidin to visualize F-actin.

The subject of data set [9] is MDA-MB-435 cells. The data set is described as follows: Lamellipodia formation by fluorescence microscopy (Rhodamine phalloidin), MDA-MB-435. It counts as cell-based, human.
Data set [10] deals with PAK1. In words: PAK1 activity by Western blot for phospho-Thr 423, MDA-MB-435 cells. The class given is cell-based, human. Conditions: both 2 and 4 μM, 24 h. Here is the method: as §2
The effect of EHop-016 on Rac action was also determined by analyzing the activity of the Rac downstream effector PAK that regulates Rac-mediated lamellipodia extension and directed cell migration. […] Since Rac/PAK signaling regulates directed cell migration, the effect of EHop-016 at 0-5 μM was determined on migration of MDA-MB-435 cells by using a Transwell assay. As shown in FIG. 6(B), treatment with 2 and 5 μM EHop-016 reduced directed cell migration by ˜60% at concentrations that reduced Rac activity by ˜80% as shown in FIG. 2 and FIGS. 4A-4E. It is possible that Rac may not be the only regulator of cell migration in this highly invasive cancer cell line.
A general note: A western blot detects proteins with antibodies after separation by electrophoresis.

The subject of data set [11] is MDA-MB-435 cells. In words: Transwell cell migration assay. It counts as cell-based, human. The settings on record: 2 and 5 μM, 24 h treatment, 4 h migration. As to the method: Quiescent MDA-MB-435 cells were treated with vehicle or varying concentrations of EHop-016 (0-5 μM) for 24 hrs. Exactly 2×10^5 cells were placed on the top well of Transwell chambers (Corning Life Sciences, Lowell, Mass.) with media containing 10% FBS in the bottom well. The number of cells that migrated to the underside of the membrane following 4 h incubation was quantified for each treatment.

Data set [12] concerns MDA-MB-435 cells. In words: MTT cell viability assay, MDA-MB-435. It counts as cell-based, human. As to the method: (§3) […] Cell viability was measured using the MTT [3-(4,5-dimethylthiazol-2-yl)-2,5-diphenyl tetrazolium bromide] cell survival and proliferation kit (Millipore, Inc., Billerica, Mass.) according to manufacturer's instructions.
Data set [13] has as its system MCF-10A cells. In words: MTT cell viability assay, MCF-10A mammary epithelial cells. It counts as cell-based. Here is the method:
as §3
On the technique in general: Tetrazolium dyes change colour on reduction, which living cells bring about.

The test system of data set [14] is MDA-MB-231 cells. In words: MTT cell viability assay, MDA-MB-231. The class given is cell-based, human.
A short description of data set [15]: Body weight and gross toxicity in athymic nude mice. It counts as in vivo. Conditions: oral and intraperitoneal, 1 mg/kg once a week for 9 weeks; preliminary.
The target of data set [16] is Rac1 (Homo sapiens, UniProt P63000). The data set is described as follows: G-LISA Rac1 activation assay on MDA-MB-435 cell lysates. Also noted: selectivity among Rho GTPases: dose or concentration left out as unconfirmed.
For data set [17], the target named is Tiam-1 DH/PH domain / Rac1(G15A) (Homo sapiens, UniProt P63000, G15A). In words: Interaction of purified Tiam-1 DH/PH domain with Rac1(G15A) beads.
Data set [18] deals with Trio (Homo sapiens, UniProt O75962). Conditions: cited from earlier work.
The target of data set [19] is Rac (Homo sapiens, UniProt P63000). Conditions: cited from earlier work.
The test system of data set [20] is Rac. The settings on record: fibroblasts; read-out: IC50 as Rac inhibitor in fibroblasts; cited from earlier work.

The term IC50 denotes the midpoint of a concentration-inhibition curve.

T2 sequence (P60953 whole entry): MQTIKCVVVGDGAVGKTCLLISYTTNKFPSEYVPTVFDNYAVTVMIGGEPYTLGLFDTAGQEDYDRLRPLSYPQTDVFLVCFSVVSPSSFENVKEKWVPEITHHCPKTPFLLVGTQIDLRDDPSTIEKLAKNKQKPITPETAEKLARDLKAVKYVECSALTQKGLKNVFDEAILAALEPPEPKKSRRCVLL
T3 sequence (P61586 whole entry): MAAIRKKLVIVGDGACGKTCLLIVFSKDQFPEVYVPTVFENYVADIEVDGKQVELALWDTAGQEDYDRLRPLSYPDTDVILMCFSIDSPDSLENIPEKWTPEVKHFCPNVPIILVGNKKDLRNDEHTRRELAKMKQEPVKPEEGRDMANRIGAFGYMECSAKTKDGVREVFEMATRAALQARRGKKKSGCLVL

`O=c1cc(CN2CCOCC2)occ1OCCCCCSc1ccnc2cc(C(F)(F)F)ccc12` [EHT 1864]: in data set [1], the “concentration interfering with Rac-downstream effector interaction” value was 10 to 50 µM and the “effective concentration as Rac inhibitor” value is 10 µM.
Turning to `CCn1c2ccccc2c2cc(Nc3ccnc(NCCCN4CCOCC4)n3)ccc21` [EHop-016, N^4-(9-Ethyl-9H-carbazol-3-yl)-N2-(3-morpholin-4-yl-propyl)-pyrimidine-2,4-diamine], the “inhibition of Rac activity” value came out at 79% in data set [2] (2 μM) and 93% in data set [2] (4 μM). The concentration for half-maximal inhibition (IC50) in data set [3] was roughly 3000 nM; in data set [16] (read-out: IC50 for inhibition of Rac1 activity, MDA-MB-435 cells, 24 h treatment), 1100 nM. For the same compound, in data set [4], the inhibition at 1 µM was 58%. In data set [5] (2 or 4 μM), the “effect on Cdc42 activity” value was “did not affect”. Moreover, in data set [5] (MDA-MB-435, 5 μM), the inhibition at 5 µM was 28%. For the same compound, in [5] (MDA-MB-435, 10 μM), the inhibition at 10 µM was found to be 74%. The “increase of RhoA activity” value in data set [6] is given as roughly 1.3 fold. Moreover, the remaining activity at 4 µM in data set [7] was roughly 50%. Also, the “cells that extended lamellipodia” value is roughly 30% in data set [8]; roughly 30% in data set [9] (both 2 and 4 μM, 24 h, MDA-MB-435, control close to 100%). Also, in data set [9] (2 and 4 μM), the “effect on extension of filopodia” value is “did not affect”. For the same compound, the “effect on PAK activity (phospho-Thr 423 PAK1)” value in data set [10] is “dramatically inhibits”. For the same compound, the “reduction of directed cell migration” value in data set [11] is roughly 60%. The “decrease in cell number compared to controls” value is listed as roughly 30% in data set [12] (5 μM, MDA-MB-435, only a trend) and roughly 30% in data set [13] (5 μM, MCF-10A, only a trend). Further, the cell viability remaining in data set [12] (10 μM, MDA-MB-435) is reported as roughly 50%; in data set [13] (10 μM, MCF-10A), roughly 50%. The “effect on cell viability” value in data set [12] (25 μM, MDA-MB-435) is listed as “significant reduction”; in data set [12] (1 or 2 μM, MDA-MB-435), “did not significantly affect”; in data set [12] (low concentrations (<5 μM)), “does not affect”; in [13] (25 μM, MCF-10A) it was “significant reduction”; in data set [13] (1 or 2 μM, MCF10A), “did not significantly affect”; in data set [14] (25 μM) it was “significant reduction”. The “effect on cell viability” value in data set [14] (1 or 2 μM) is reported as “did not significantly affect”. Further, the “body weight and gross toxicity” value in data set [15] is “no change in body weight or gross indications of toxicity”. Further, in [16], the “potency relative to other currently available Rac inhibitors” value is listed as 10-50 times. Besides, the “selectivity among Rho GTPases” value in data set [16] was “specific for Rac1 and Rac3”. Moreover, the “reduction of Rac activity” value in [16] (2 and 5 μM) is roughly 80%. Besides, in data set [16] (MDA-MB-435 cells), the “potency relative to NSC23766” value was “approximately 100 times”. In data set [17], the “concentration at which Tiam-1 DH/PH-Rac1(G15A) interaction is inhibited” value worked out at 40 µM. Also, the “effect on interaction of Tiam-1 DH/PH domain with Rac1(G15A)” value in [17] (5 μM) is “did not affect”. The inhibition at 50 µM in data set [17] (read-out: inhibition of Tiam-1/Rac1(G15A) interaction) was found to be 64%.
As for `Cc1cc(/C=c2/sc3nc4ccccc4n3c2=O)c(C)n1-c1ccccc1` [ITX3], in [18], the effective concentration is 50 to 100 µM.
Regarding `O=C(C#Cc1ccccc1)c1cccc([N+](=O)[O-])c1` [MLS000532223], the “effect on GTP binding to Rac” value in data set [19] is recorded as “prevents GTP binding to Rac”.
On to `CCN(CC)CCCC(C)Nc1nc(C)cc(Nc2ccc3nc(C)cc(N)c3c2)n1` (stereo not shown) [NSC23766, reference compound], for which the “effect on lamellopodia formation” value in data set [9] (50 μM, MDA-MB-435) is “no significant effect”. For the same compound, in data set [20], the concentration for half-maximal inhibition (IC50) was 50000 to 100000 nM.
